Data from publication PMC8058733, “A pain killer without analgesic tolerance designed by co-targeting PSD-95-nNOS interaction and α2-containning GABAARs” (Theranostics, 2021).

Columns and labels:
PSD-95-nNOS complex = target: T1, PSD-95-nNOS complex (Rattus norvegicus, UniProt P29476); assay: Co-IP of PSD-95-nNOS complex levels in the spinal dorsal horn after SNL; assay type: in vivo; conditions: SNL rats, (+)-borneol 5 mg/kg/d, i.v., × 3 d
T1 construct: dorsal spinal cord tissues (L4 and L5) were lysed in 400 μl RIPA; from tissue; host or cells: rat dorsal spinal cord (L4 and L5), SNL model

locomotor activity = assay: Open field test, locomotor activity; assay type: in vivo; conditions: mice, (+)-borneol 45 mg/kg, i.v.
Experimental: The locomotor activity was assessed by the open field test as described previously. The apparatus consisted of a large area composed of plastic, surrounded by walls that were 100 cm high. The floor was 50 × 50 cm for mice; the overall illumination was 25 lux. Each animal was gently placed in the center of the open field, and its behavior was videotaped. The distance the animals travelled was measured in a 5-min session using ANY-maze (Stoelting Co., IL, USA). After each trial, the plate was cleaned with 70% EtOH. No stressor was applied to the animals for at least 12 h before the test.

BDNF = assay: Western blot of BDNF levels in the spinal dorsal horn after SNL; assay type: in vivo, rat; conditions: SNL rats, (+)-borneol 10 mg/kg, i.v., × 3 d
Experimental: (§1) Western bolt analysis was performed as described previously. Briefly, the dorsal spinal cord (L4 and L5) was dissected from sham or SNL rats and homogenized in 400μl RIPA lysis buffer containing 1 μM pepstatin, 10 μg/ml aprotinin, 10 μg/ml leupeptin, 10 μg/ml and 10 μM phenylmethylsufonyl fluoride (PMSF). After lysis for 30 min in ice, samples were centrifuged at 12,000 g for 15 min. The protein content in each supernatant fraction was determined by using Bradford's solution, and samples containing equivalent amounts of protein were applied to 10% or 15% (10% for GABA(A)α2 and α3, 15% for BDNF) acrylamide denaturing gels (SDS-PAGE). The separated proteins were transferred onto a polyvinylidene fluoride membrane. The primary antibodies were as follows: rabbit anti-GABA(A)α2 (1:500; Millipore AB5948), rabbit anti-GABA(A)α3 (1:500; Millipore AB5594), rabbit anti-BDNF (1:1000; Thermo PA1-18357, RRID:AB_1070634). Internal control was performed using rabbit anti-β-actin (1:1000; Bioss bs-0061R, RRID: AB_10855480). Appropriate horseradish peroxidase-linked secondary antibodies were used for detection by enhanced chemiluminescence (Bio-Rad).

α1-containing GABAAR = system: α1-containing GABAAR; design: method as in PMID 15763546; conditions: Xenopus laevis oocytes, high dose; cited from earlier work
α1β2γ2 GABAARs = target: T2, α1β2γ2 GABAARs (Homo sapiens, UniProt P14867+P18507+P47870); assay: Potentiation of GABA-evoked currents, whole-cell patch-clamp in HEK293 cells transiently expressing recombinant GABAARs; assay type: cell-based; conditions: α1β2γ2
T2 construct: Shanghai Genechem Co.,Ltd (γ2 plasmid); host or cells: HEK293
Experimental: (§2) The affinities of drugs for α1, α2, α3 and α5 subunits were studied in the HEK293 cells (from FuHeng Biology, Shanghai, China) transiently expressing recombinant GABAARs (α1β2γ2, α2β3γ2, α3β3γ2 and α5β2γ2) as described previously. Briefly, the HEK293 cells were cultured in MEM medium supplemented with 10% FBS (fetal bovine serum, Gibico), 1% L-glutamine (Gibco) and 1% mycillin (Gibco). Before transfection, the cells were subcultured onto a 3.5cm dish at the ratio of 1:2. Then, the plasmids of α1/α2/α3/α5 (Origene), β2/β3 (Origene) and γ2 (Shanghai Genechem Co.,Ltd ) (5μg total DNA, ratio 1:1:2) were transfected using Fugene®HD transfection reagent (Promega). The γ2 subunit contained GFP from IRES (internal ribosomal entry site) and was used as a marker of the successful transfection. Cells were used for electrophysiology recording 18-36 hours after transfection.
(§3) Electrophysiology recordings from HEK293 cells were performed as described previously. Briefly, whole-cell patch-clamp recordings of GABA-evoked currents were made at 30 °C with the holding potential of -60 mV. The internal solution (solution in recording electrodes) contained (in mM): 120 CsCl, 10 EGTA, 10 HEPES, 4 MgCl2, 0.5 GTP, 2 ATP and pH was adjusted to 7.4 with CsOH and the external solution contained (in mM): 150 NaCl, 10 KCl, 2 CaCl2, 1 MgCl, 10 HEPES, 10 Glucose and pH was adjusted to 7.4 with NaOH. ACSF was bubbled continuously with carbogen (95%O2 and 5%CO2). For the recording of GABA-evoked currents, the slides were transferred to a recording chamber, which was perfused with ACSF at a rate of 4 ml/min. The cells were viewed under upright microscopy (Olympus), and GFP-positive cells were selected to record the currents. The interval time between each different dose of GABA was controlled, 3 to 5 minutes to avoid the desensitization of GABAARs.

α2β3γ2 GABAARs = target: T3, α2β3γ2 GABAARs (Homo sapiens, UniProt P18507+P28472+P47869); assay: as above; assay type: cell-based; conditions: α2β3γ2, n = 8
T3 construct: Shanghai Genechem Co.,Ltd (γ2 plasmid); host or cells: HEK293
Experimental: as §2, §3

α3β3γ2 GABAARs = target: T4, α3β3γ2 GABAARs (Homo sapiens, UniProt P18507+P28472+P34903); assay: as above; assay type: cell-based; conditions: α3β3γ2, n = 8
T4 construct: Shanghai Genechem Co.,Ltd (γ2 plasmid); host or cells: HEK293
Experimental: as §2, §3

α2 subunit of GABAARs = assay: Western blot of GABAAR subunit levels in the spinal dorsal horn; assay type: in vivo, rat; conditions: SNL rats, (+)-borneol 5 mg/kg/d, i.v., × 11 d
Experimental: as §1

α3 subunit of GABAARs = assay: as above; assay type: in vivo, rat; conditions: SNL rats, (+)-borneol 5 mg/kg/d, i.v., × 11 d
Experimental: as §1

[1] = system: SNL-induced mechanical hyperalgesia; assay: SNL-induced mechanical hyperalgesia, paw withdrawal threshold; assay type: in vivo, rat; conditions: SNL rats, (+)-borneol 5 mg/kg/d, i.v., 11 consecutive days
Experimental: Neuropathic pain was induced by segmental spinal nerve ligation (SNL). Animals were anesthetized with isoflurane. After the loss of righting reflex, the animal was fixed in the prone position. The SNL model was prepared as described previously: a median skin incision with about 3-5 cm length in L4-S2 level of the mouse back was made, the muscles next to the vertebrae till the sixth lumbar protruding were separated, the L5/L6 joint protruding on the right side was exposed and excised, and L6 processus transversus was partially split so that the L4-L6 spinal nerves on the right side were exposed. L5 nerve was gently isolated and tightly ligated with 5-0 silk thread. The wound was closed with 4-0 silk thread suture and covered with iodine solution. After nerve ligation, animals with signs of paw clonus or autotomy were excluded from further experiments.
Osmotic minipumps (models 1004 for mouse and 2ML4 for rat; Alzet) and intrathecal cannulas (0.61 mm outer diameter and 0.28 mm inner diameter for mouse, 0.99 mm outer diameter and 0.58 mm inner diameter for rat) were filled with a solution of PBS. Cannulas were inserted into the subarachnoid space through the space between the L5 and L6 vertebrae and the tip of the catheter was implanted at the L5 spinal segmental level.
For rats, the threshold for 50% paw withdrawal (50% PWT) response to mechanical stimulus was assessed through a dynamic plantar apparatus (Ugo Basile, Italy). The 50% PWT refers to that the probability of paw withdrawal response to repeated mechanical stimulus is 50%. Rats were placed individually in a plastic cage (17 × 15 × 15 cm) with a wire mesh bottom which allowed full access to the paws. Behavioral accommodation was allowed for 15-20 min until cage exploration and major grooming activities ceased. A maximal cut-off of 50g/50s was set to prevent tissue damage. To record the PWT in response to mechanical stimulus, each rat was measured five times with a 5-min interval, and the mean value was recorded after excluding maximal and minimum values. The experimental procedures were performed in a double-blind manner.

[2] = system: putative excitatory neurons of brain cortex; assay: Potentiation of GABA-evoked currents in acute brain cortex slices; assay type: cell-based; conditions: Neuron; rat brain cortex slices, n = 12

T3 sequence (P47869 29-451): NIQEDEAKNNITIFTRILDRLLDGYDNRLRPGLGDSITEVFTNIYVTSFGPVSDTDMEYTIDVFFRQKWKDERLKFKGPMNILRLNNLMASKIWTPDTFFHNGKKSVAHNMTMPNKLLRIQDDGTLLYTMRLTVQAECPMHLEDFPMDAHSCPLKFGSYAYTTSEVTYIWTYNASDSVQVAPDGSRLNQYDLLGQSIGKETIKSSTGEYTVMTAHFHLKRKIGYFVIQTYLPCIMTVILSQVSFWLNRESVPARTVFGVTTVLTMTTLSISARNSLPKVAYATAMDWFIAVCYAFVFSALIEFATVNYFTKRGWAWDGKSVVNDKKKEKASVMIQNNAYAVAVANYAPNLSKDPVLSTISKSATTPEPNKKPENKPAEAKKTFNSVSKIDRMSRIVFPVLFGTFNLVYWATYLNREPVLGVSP
T3 sequence (P28472 26-473): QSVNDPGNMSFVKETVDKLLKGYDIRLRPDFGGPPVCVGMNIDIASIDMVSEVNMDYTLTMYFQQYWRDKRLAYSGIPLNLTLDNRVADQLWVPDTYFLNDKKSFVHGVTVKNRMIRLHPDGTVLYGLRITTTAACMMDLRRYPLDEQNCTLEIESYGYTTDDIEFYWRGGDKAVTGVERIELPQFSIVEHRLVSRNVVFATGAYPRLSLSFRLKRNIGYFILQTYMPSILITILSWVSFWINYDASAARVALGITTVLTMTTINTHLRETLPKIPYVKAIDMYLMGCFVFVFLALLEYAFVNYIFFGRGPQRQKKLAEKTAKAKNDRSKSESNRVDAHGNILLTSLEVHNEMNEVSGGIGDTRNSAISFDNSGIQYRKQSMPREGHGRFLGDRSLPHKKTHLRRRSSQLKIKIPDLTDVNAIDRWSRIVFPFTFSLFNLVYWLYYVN
T3 sequence (P18507 40-475): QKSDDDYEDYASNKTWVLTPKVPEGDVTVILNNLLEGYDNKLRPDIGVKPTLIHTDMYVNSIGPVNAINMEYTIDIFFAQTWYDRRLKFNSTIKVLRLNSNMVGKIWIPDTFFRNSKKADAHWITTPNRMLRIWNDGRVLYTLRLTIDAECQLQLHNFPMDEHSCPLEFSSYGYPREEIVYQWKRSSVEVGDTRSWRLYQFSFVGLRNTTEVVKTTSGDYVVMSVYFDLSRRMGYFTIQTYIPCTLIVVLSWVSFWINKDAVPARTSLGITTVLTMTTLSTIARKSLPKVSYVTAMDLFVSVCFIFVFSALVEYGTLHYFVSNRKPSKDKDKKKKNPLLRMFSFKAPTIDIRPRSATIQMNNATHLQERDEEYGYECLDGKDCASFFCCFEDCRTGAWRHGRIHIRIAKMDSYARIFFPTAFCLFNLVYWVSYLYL
T4 sequence (P34903 29-492): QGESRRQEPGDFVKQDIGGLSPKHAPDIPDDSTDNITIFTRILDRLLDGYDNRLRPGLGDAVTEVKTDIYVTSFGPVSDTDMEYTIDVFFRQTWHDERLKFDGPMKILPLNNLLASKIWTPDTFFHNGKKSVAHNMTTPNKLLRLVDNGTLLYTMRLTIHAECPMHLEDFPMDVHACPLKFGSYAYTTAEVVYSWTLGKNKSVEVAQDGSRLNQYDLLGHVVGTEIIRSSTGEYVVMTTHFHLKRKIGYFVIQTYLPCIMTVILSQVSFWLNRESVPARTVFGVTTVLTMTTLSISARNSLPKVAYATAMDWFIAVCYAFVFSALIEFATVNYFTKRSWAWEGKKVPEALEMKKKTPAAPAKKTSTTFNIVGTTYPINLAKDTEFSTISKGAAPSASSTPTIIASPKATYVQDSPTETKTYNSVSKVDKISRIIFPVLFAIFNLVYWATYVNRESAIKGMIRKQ
T4 sequence (P28472 26-473): as the sequence (P28472 26-473) above
T4 sequence (P18507 40-475): as the sequence (P18507 40-475) above
T2 sequence (P14867 28-456): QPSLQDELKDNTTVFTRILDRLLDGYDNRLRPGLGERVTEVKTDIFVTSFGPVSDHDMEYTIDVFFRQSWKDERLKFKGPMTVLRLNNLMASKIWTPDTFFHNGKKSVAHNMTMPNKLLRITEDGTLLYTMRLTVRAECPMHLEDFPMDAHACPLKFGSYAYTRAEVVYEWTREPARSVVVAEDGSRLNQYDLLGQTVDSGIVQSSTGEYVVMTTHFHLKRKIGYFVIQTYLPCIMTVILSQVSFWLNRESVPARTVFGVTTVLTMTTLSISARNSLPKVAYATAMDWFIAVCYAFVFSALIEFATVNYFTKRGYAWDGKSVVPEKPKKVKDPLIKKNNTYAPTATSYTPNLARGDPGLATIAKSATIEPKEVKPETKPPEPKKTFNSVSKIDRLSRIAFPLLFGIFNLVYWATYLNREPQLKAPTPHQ
T2 sequence (P47870 25-512 limits assumed): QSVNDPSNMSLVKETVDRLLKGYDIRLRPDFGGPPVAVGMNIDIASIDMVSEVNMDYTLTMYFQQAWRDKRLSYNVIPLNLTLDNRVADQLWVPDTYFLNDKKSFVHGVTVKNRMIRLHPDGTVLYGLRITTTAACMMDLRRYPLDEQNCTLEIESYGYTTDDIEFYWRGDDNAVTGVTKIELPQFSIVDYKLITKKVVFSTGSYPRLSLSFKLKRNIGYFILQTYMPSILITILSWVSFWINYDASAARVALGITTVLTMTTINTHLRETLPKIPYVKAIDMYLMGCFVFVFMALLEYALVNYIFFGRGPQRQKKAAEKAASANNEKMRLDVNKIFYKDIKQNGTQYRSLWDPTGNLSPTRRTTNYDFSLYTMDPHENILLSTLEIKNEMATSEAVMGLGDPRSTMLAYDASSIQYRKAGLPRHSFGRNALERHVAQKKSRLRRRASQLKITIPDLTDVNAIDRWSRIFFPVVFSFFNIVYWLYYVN
T2 sequence (P18507 40-475): as the sequence (P18507 40-475) above
T1 sequence (P29476 whole entry, one chain of several): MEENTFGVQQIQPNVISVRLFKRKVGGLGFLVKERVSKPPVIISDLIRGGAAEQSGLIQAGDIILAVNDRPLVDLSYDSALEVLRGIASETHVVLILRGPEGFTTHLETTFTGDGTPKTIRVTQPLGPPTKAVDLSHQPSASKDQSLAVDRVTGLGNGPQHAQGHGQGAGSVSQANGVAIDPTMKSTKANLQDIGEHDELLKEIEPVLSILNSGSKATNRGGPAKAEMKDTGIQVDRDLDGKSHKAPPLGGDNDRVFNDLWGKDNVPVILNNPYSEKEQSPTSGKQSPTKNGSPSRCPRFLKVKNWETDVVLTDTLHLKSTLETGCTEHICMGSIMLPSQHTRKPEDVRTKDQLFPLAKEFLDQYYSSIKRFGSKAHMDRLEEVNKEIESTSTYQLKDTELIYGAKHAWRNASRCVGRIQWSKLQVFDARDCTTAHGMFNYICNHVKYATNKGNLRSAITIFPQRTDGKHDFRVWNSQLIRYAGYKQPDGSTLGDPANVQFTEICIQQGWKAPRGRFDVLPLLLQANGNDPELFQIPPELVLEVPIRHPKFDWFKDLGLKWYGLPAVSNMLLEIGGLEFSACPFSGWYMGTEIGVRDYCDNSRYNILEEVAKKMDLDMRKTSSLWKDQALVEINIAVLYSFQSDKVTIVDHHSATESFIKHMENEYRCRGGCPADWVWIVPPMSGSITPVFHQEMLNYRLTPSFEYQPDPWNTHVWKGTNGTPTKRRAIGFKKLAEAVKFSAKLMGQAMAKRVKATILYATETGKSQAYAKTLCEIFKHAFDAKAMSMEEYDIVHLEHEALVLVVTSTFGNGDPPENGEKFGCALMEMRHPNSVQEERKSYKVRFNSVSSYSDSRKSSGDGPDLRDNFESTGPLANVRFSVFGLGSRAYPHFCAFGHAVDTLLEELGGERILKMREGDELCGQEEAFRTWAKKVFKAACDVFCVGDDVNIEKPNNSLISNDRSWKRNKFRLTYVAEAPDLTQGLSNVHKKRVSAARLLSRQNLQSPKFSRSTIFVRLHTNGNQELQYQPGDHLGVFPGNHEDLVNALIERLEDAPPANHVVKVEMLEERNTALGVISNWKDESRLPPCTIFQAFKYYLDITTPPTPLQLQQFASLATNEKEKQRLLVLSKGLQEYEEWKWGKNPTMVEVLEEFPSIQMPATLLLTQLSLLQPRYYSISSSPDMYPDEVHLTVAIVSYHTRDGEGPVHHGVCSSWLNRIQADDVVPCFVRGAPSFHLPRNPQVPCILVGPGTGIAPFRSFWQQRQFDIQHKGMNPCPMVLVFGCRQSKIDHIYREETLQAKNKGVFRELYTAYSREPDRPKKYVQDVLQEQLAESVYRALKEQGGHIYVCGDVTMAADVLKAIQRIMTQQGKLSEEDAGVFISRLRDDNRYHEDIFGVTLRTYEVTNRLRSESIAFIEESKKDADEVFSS

With `CC1(C)[C@@H]2CC[C@@]1(C)[C@@H](O)C2` [(+)-borneol] the “PSD-95-nNOS complex level in the SDH” value (PSD-95-nNOS complex) was “increased nNOS-PSD-95 interaction in the SDH significantly”, the “Locomotor activity, distance travelled during 5 min” value (locomotor activity) was “without BZDs-associated behavioral effects” and the “SNL-induced BDNF expression in the SDH” value (BDNF) was “significantly decreased SNL-induced BDNF expression in the SDH”. For the same molecule, the “Modulation of α1-containing GABAAR” value (α1-containing GABAAR) was “can positively modulate α1-containing GABAAR expressed in Xenopus laevis oocytes at high dose”, the “Effect on GABA-evoked currents of α1-containing GABAAR (in words)” value (α1β2γ2 GABAARs) was “no effect on GABA-evoked currents as high as 10 μM” and the Emax (α2β3γ2 GABAARs) was 122 ± 11%. The Emax (α3β3γ2 GABAARs) was 109 ± 6.05%, the “α2 subunit of GABAARs expression in the SDH” value (α2 subunit of GABAARs) was “decreased α2 and α3 subunits of GABAARs expressions” and the “α3 subunit of GABAARs expression in the SDH” value (α3 subunit of GABAARs) was “decreased α2 and α3 subunits of GABAARs expressions”. The “Analgesic tolerance, mechanical hyperalgesia” value [1] was “caused analgesic tolerance development rapidly”, the EC50 [2] was 0.4236 ± 0.0014 nM and the Emax [2] was 63.1 ± 3.4%.
